Patent US8138168B1 (Takeda Pharmaceutical Company Limited, priority 2007, dated 2012)
pIC50: −log10 of the molar value.

Biological target: T1, Recombinant human renin (Homo sapiens, UniProt P00797)
T1 construct: isolate the active form (residues 67-406); made in house; host or cells: FreeStyle 293-F cells (transient expression of pcDNA3.1(+)/hREN)
T1 sequence (P00797 67-406): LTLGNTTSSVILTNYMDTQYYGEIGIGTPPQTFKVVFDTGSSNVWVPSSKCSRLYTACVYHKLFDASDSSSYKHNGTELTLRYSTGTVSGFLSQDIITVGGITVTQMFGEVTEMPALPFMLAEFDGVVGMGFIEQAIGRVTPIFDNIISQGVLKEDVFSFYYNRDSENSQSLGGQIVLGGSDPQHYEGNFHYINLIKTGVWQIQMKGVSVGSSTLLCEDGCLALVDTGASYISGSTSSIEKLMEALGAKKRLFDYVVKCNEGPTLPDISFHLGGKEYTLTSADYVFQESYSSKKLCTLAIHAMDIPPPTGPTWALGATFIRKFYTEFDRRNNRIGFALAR
Assay: In vitro enzymatic activity assay of renin inhibitors (fluorogenic peptide substrate)
Format: biochemical
Details: read-out: IC50 of Exemplified Compounds Against Renin
In short: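 Recombinant human renin (3 nM final) pre-incubated 10 min at 37 °C with compounds in pH 7.4 Hepes/EDTA/DTT/0.1 mg/mL BSA/Brij35 buffer (optionally plus 2% BSA), 5% DMSO final; fluorogenic QXL520/HiLyteFluo488 peptide substrate added.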

pIC50	Structure (SMILES)
< 6.00	COCCCn1c([C@@H]2CCCN(C(=O)[C@@H]3CN(C(=O)Nc4ccccc4Cl)C[C@H]3N)C2)nc2ccccc21 [Compound 389, (3S,4R)-3-amino-N-(2-chlorophenyl)-4-((R)-3-(1-(3-methoxypropyl)-1H-benzo[d]imidazol-2-yl)piperidine-1-carbonyl)pyrrolidine-1-carboxamide]
6.00 to 7.00	COCCCn1c([C@@H]2CCCN(C(=O)C[C@H](N)CNC(=O)c3ccc(OC)cc3)C2)nc2ccccc21 [Compound 280, N-((S)-2-amino-4-((R)-3-(1-(3-methoxypropyl)-1H-benzo[d]imidazol-2-yl)piperidin-1-yl)-4-oxobutyl)-4-methoxybenzamide]
6.00 to 7.00	COCCCn1c([C@@H]2CCCN(C(=O)C[C@H](N)c3cccc(C(F)(F)F)c3)C2)nc2ccccc21 [Compound 84, (S)-3-amino-1-((R)-3-(1-(3-methoxypropyl)-1H-benzo[d]imidazol-2-yl)piperidin-1-yl)-3-(3-(trifluoromethyl)phenyl)propan-1-one]
< 6.00	COCCCn1c([C@@H]2CCCN(C(=O)C[C@H](N)CNC(=O)c3ccccc3OC)C2)nc2ccccc21 [Compound 327, N-((S)-2-amino-4-((R)-3-(1-(3-methoxypropyl)-1H-benzo[d]imidazol-2-yl)piperidin-1-yl)-4-oxobutyl)-2-methoxybenzamide]
6.00 to 7.00	COCCCn1c([C@@H]2CCCN(C(=O)C[C@H](N)CNC(=O)c3cccc4ccccc34)C2)nc2ccccc21 [Compound 311, N-((S)-2-amino-4-((R)-3-(1-(3-methoxypropyl)-1H-benzo[d]imidazol-2-yl)piperidin-1-yl)-4-oxobutyl)-1-naphthamide]
< 6.00	N[C@@H](CC(=O)N1CCCC(c2nc3ccccc3[nH]2)C1)c1cccc(Cl)c1Cl (stereo partly drawn) [Compound 37, (3S)-1-(3-(1H-benzo[d]imidazol-2-yl)piperidin-1-yl)-3-amino-3-(2,3-dichlorophenyl)propan-1-one]
6.00 to 7.00	COCCCn1c([C@@H]2CCCN(C(=O)[C@@H]3CN(S(=O)(=O)c4c(C)cccc4Cl)C[C@H]3N)C2)nc2ccccc21 [Compound 359, ((3R,4S)-4-amino-1-(2-chloro-6-methylphenylsulfonyl)pyrrolidin-3-yl)((R)-3-(1-(3-methoxypropyl)-1H-benzo[d]imidazol-2-yl)piperidin-1-yl)methanone]
> 7.00	COCCCn1c([C@@H]2CCCN(C(=O)C[C@H](N)Cc3ccc(-c4ccc(OC(C)C)nc4)cc3)C2)nc2ccccc21 [Compound 142, (R)-3-amino-4-(4-(6-isopropoxypyridin-3-yl)phenyl)-1-((R)-3-(1-(3-methoxypropyl)-1H-benzo[d]imidazol-2-yl)piperidin-1-yl)butan-1-one]
> 7.00	CCOc1nc(-c2ccc(C[C@@H](N)CC(=O)N3CCC[C@@H](c4nc5ccccc5n4CCCOC)C3)cc2)cs1 [Compound 200, (R)-3-amino-4-(4-(2-ethoxythiazol-4-yl)phenyl)-1-((R)-3-(1-(3-methoxypropyl)-1H-benzo[d]imidazol-2-yl)piperidin-1-yl)butan-1-one]
6.00 to 7.00	COCCCn1c([C@@H]2CCCN(C(=O)C[C@H](N)CNC(=O)c3cccc(C(=O)OC)c3)C2)nc2ccccc21 [Compound 282, methyl 3-((S)-2-amino-4-((R)-3-(1-(3-methoxypropyl)-1H-benzo[d]imidazol-2-yl)piperidin-1-yl)-4-oxobutylcarbamoyl)benzoate]
> 7.00	COCCCn1c([C@@H]2CCCN(C(=O)C[C@H](N)Cc3ccc(-c4ccc5c(c4)SCC(=O)N5)cc3)C2)nc2c(F)cccc21 [Compound 442, 7-(4-((R)-2-amino-4-((R)-3-(4-fluoro-1-(3-methoxypropyl)-1H-benzo[d]imidazol-2-yl)piperidin-1-yl)-4-oxobutyl)phenyl)-2H-benzo[b][1,4]thiazin-3(4H)-one]
6.00 to 7.00	COCCCn1c([C@@H]2CCCN(C(=O)[C@H](O)[C@H](N)c3ccccc3)C2)nc2ccccc21 [Compound 92, (2R,3R)-3-amino-2-hydroxy-1-((R)-3-(1-(3-methoxypropyl)-1H-benzo[d]imidazol-2-yl)piperidin-1-yl)-3-phenylpropan-1-one]
> 7.00	COCCCn1c([C@@H]2CCCN(C(=O)C[C@H](N)Cc3ccc(-c4ccc(NC(C)=O)cc4)cc3)C2)nc2c(F)cccc21 [Compound 491, N-(4′-((R)-2-amino-4-((R)-3-(4-fluoro-1-(3-methoxypropyl)-1H-benzo[d]imidazol-2-yl)piperidin-1-yl)-4-oxobutyl)biphenyl-4-yl)acetamide]
> 7.00	COCCCn1c([C@@H]2CCCN(C(=O)C[C@H](N)Cc3ccc(-c4ccccc4)cc3)C2)nc2ccccc21 [Compound 124, (R)-3-amino-4-(biphenyl-4-yl)-1-((R)-3-(1-(3-methoxypropyl)-1H-benzo[d]imidazol-2-yl)piperidin-1-yl)butan-1-one]
< 6.00	COCCCn1c([C@@H]2CCCN(C(=O)C[C@H](N)c3cnccc3OC)C2)nc2ccccc21 [Compound 120, (S)-3-Amino-1((R)-3-(1-(3-methoxypropyl)-1H-benzo[d]imidazol-2-yl)piperidin-1-yl)-3-(4-methoxypyridin-3-yl)propan-1-one]
< 6.00	Cc1cccc(C[C@@H](N)CC(=O)N2CCCC(c3nc4ccccc4[nH]3)C2)c1 (stereo partly drawn) [Compound 43, (3R)-1-(3-(1H-benzo[d]imidazol-2-yl)piperidin-1-yl)-3-amino-4-m-tolylbutan-1-one]
6.00 to 7.00	COCCCn1c([C@@H]2CCCN(C(=O)[C@@H]3CN(S(=O)(=O)c4ccc(Br)cc4Cl)C[C@H]3N)C2)nc2ccccc21 [Compound 342, ((3R,4S)-4-amino-1-(4-bromo-2-chlorophenylsulfonyl)pyrrolidin-3-yl)((R)-3-(1-(3-methoxypropyl)-1H-benzo[d]imidazol-2-yl)piperidin-1-yl)methanone]
6.00 to 7.00	COCCCn1c([C@@H]2CCCN(C(=O)C[C@H](N)CNS(=O)(=O)c3ccc(OC)cc3)C2)nc2ccccc21 [Compound 321, N-((S)-2-amino-4-((R)-3-(1-(3-methoxypropyl)-1H-benzo[d]imidazol-2-yl)piperidin-1-yl)-4-oxobutyl)-4-methoxybenzenesulfonamide]
< 6.00	COCCCn1c([C@@H]2CCCN(C(=O)[C@@H]3CN(S(=O)(=O)c4cccc(-c5nnc(C)o5)c4)C[C@H]3N)C2)nc2ccccc21 [Compound 431, ((3R,4S)-4-amino-1-(3-(5-methyl-1,3,4-oxadiazol-2-yl)phenylsulfonyl)pyrrolidin-3-yl)((R)-3-(1-(3-methoxypropyl)-1H-benzo[d]imidazol-2-yl)piperidin-1-yl)methanone]
< 6.00	COCCCn1c([C@@H]2CCCN(C(=O)[C@@H]3CN(S(=O)(=O)c4ccccc4C#N)C[C@H]3N)C2)nc2ccccc21 [Compound 427, 2-((3S,4R)-3-amino-4-((R)-3-(1-(3-methoxypropyl)-1H-benzo[d]imidazol-2-yl)piperidine-1-carbonyl)pyrrolidin-1-ylsulfonyl)benzonitrile]
< 6.00	COCCCn1c(C2CCCN(C(=O)C[C@H](N)Cc3ccc4ccccc4c3)C2)nc2cccc(C(=O)OC)c21 (stereo partly drawn) [Compound 112, methyl 2-(1-((R)-3-amino-4-(naphthalen-2-yl)butanoyl)piperidin-3-yl)-1-(3-methoxypropyl)-1H-benzo[d]imidazole-7-carboxylate]
< 6.00	O=C(Nc1cccnc1)N1CCCC(c2nc3ccccc3[nH]2)C1 (stereo not drawn) [Compound 20, 3-(1H-benzo[d]imidazol-2-yl)-N-(pyridin-3-yl)piperidine-1-carboxamide]
6.00 to 7.00	CC(=O)NCCn1c([C@@H]2CCCN(C(=O)C[C@H](N)Cc3ccc(-c4ccc(N5CCNC5=O)cc4)cc3)C2)nc2ccccc21 [Compound 462, N-(2-(2-((R)-1-((R)-3-amino-4-(4′-(2-oxoimidazolidin-l-yl)biphenyl-4-yl)butanoyl)piperidin-3-yl)-1H-benzo[d]imidazol-1-yl)ethyl)acetamide]
> 7.00	COCCCn1c([C@@H]2CCCN(C(=O)C[C@H](N)Cc3ccc(-c4cnc(N)nc4)cc3)C2)nc2ccccc21 [Compound 154, (R)-3-amino-4-(4-(2-aminopyrimidin-5-yl)phenyl)-1-((R)-3-(1-(3-methoxypropyl)-1H-benzo[d]imidazol-2-yl)piperidin-1-yl)butan-1-one]
6.00 to 7.00	COCCCn1c([C@@H]2CCCN(C(=O)[C@@H]3CN(S(=O)(=O)c4ccc(NC(C)=O)cc4)C[C@H]3N)C2)nc2ccccc21 [Compound 380, N-(4-((3S,4R)-3-amino-4-((R)-3-(1-(3-methoxypropyl)-1H-benzo[d]imidazol-2-yl)piperidine-1-carbonyl)pyrrolidin-1-ylsulfonyl)phenyl)acetamide]
6.00 to 7.00	COCCCn1c([C@@H]2CCCN(C(=O)C[C@H](N)CNC(=O)c3ccc(-c4ccc(Cl)cc4Cl)o3)C2)nc2ccccc21 [Compound 267, N-((S)-2-amino-4-((R)-3-(1-(3-methoxypropyl)-1H-benzo[d]imidazol-2-yl)piperidin-1-yl)-4-oxobutyl)-5-(2,4-dichlorophenyl)furan-2-carboxamide]
< 6.00	S=C(Nc1cccc2nsnc12)N1CCCC(c2nc3ccccc3[nH]2)C1 (stereo not drawn) [Compound 18, N-(benzo[c][1,2,5]thiadiazol-4-yl)-3-(1H-benzo[d]imidazol-2-yl)piperidine-1-carboxthioamide]
